Reference: PubChem BioAssay AID1996
In brackets after ≈: the same amount, converted by molar mass.

Conditions: buffer; pH 7.4; 200.0 µM

| SMILES | solubility kinetic |
| --- | --- |
| O=C(COC(=O)Cc1c(F)cccc1Cl)NCc1ccc2c(c1)OCO2 | 46.5 µg/mL (≈ 122 µM) |
| Cc1cc(-c2csc(Nc3ccccn3)n2)ccc1F | < 0.2 µg/mL |
| CC(C)CN1CCN(Cc2cccn2-c2cccnc2)CC1CCO (centres undefined) | 28.8 µg/mL (≈ 84.1 µM) |
| O=C(CCN1C(=O)c2ccncc2C1=O)Nc1cc(F)ccc1F | 41.7 µg/mL (≈ 126 µM) |
| COc1ccc2cc(CCl)c(Cl)nc2c1 | 19.2 µg/mL (≈ 79.3 µM) |
| Cc1ccc(O)c(CNc2cccc(C)n2)c1 | 22.5 µg/mL (≈ 98.6 µM) |
| CCC(C)NC(=O)CSc1ncnc2sccc12 (centres undefined) | > 42.2 µg/mL |
| O=C(NC(=S)NC1CCCCC1)c1ccc(Cl)cc1 | < 0.3 µg/mL |
| CCCCNC(=O)Nc1nc2ccc(CC)cc2s1 | 0.7 µg/mL (≈ 2.52 µM) |
| O=C(CSc1nccc(=O)[nH]1)c1ccco1 | > 35.4 µg/mL |
| Cc1cnc(NC(=O)c2c(-c3ccccc3)noc2C)s1 | 39.8 µg/mL (≈ 133 µM) |
| Cc1ccc(S(=O)(=O)N2CCCN(C)CC2)cc1.Cl | > 45.7 µg/mL |
| Cc1sc(NC(=O)c2cccnc2)nc1-c1ccccc1 | 1.1 µg/mL (≈ 3.72 µM) |
| COc1ccc(S(=O)(=O)N2CCc3ccccc3C2)cc1 | 0.7 µg/mL (≈ 2.31 µM) |
| COc1ccccc1Nc1c2c(nc3ccc(N)cc13)CCCC2 | 47.2 µg/mL (≈ 148 µM) |
| COc1ccc(/C=C/C(=O)OCC(=O)N2CCCC2)c(OC)c1 | > 47.9 µg/mL |
| COc1cc(S(=O)(=O)Nc2cccnc2)ccc1Cl | > 44.8 µg/mL |
| CC(C)(C)c1ccccc1OCC(=O)NCCCn1ccnc1 | > 47.3 µg/mL |
| CCCN1CN(c2ccccc2)C(=S)N(c2ccccc2)C1 | > 46.7 µg/mL |
| Cc1cccc(NC(=O)c2cnccn2)c1 | 22.1 µg/mL (≈ 104 µM) |
| O=C1N(Cc2ccccc2)c2ccc(Cl)cc2C12OCCO2 | 9 µg/mL (≈ 28.5 µM) |
| CCCNC(=O)[C@H](C)NC(=O)c1ccc(Br)cc1 | > 47 µg/mL |
| CN(C(=S)NCCN1CCOCC1)C(c1ccccc1)c1ccccc1 | 42.7 µg/mL (≈ 116 µM) |
| COc1cc2c(cc1OC)C(=S)NC1(CCCC1)C2 | 5.5 µg/mL (≈ 19.8 µM) |

| SMILES | solubility kinetic |
| --- | --- |
| O=C(/C=C/c1ccc(F)cc1)NC(=S)NC1CCCCC1 | 0.5 µg/mL (≈ 1.63 µM) |
| COc1ccc(OC)c(CNC(=O)CCc2cn(C)c3ccccc23)c1 | 12.7 µg/mL (≈ 36 µM) |
| O=C(O)c1cccnc1SCC(=O)C12CC3CC(CC(C3)C1)C2 | > 49.7 µg/mL |
| O=C(NCc1ccco1)/C(=C\c1cccs1)NC(=O)c1ccccc1 | > 52.9 µg/mL |
| COc1cccc(NC(=O)COC(=O)C2=NN(c3ccccc3)C(=O)CC2)c1 | > 57.2 µg/mL |
| CC(=O)NC(C)CCc1ccccc1 (centres undefined) | > 28.7 µg/mL |
| COc1ccc(COC(=O)Nc2c(SC)nsc2SC)cc1 | 1 µg/mL (≈ 2.81 µM) |
| Nc1ccc[n+](CC(=O)c2ccccc2)c1.[Br-] | > 44 µg/mL |
| O=C(CN1CCc2ccccc2C1)NCC(=O)Nc1ccc(F)cc1 | 17.1 µg/mL (≈ 50.1 µM) |
| CCCC(=O)NC(=S)c1c(C)n(C)n(-c2ccccc2)c1=O | > 47.6 µg/mL |
| CCOc1ccc(C(=O)OCC(=O)N2CCCC2)cc1 | > 41.6 µg/mL |
| O=S(=O)(c1ccc(Br)cc1Cl)N1CCCN(c2ccc(C(F)(F)F)cn2)CC1 | 3 µg/mL (≈ 6.02 µM) |
| CC(=O)Nc1ccc(NCc2cccs2)cc1 | > 36.9 µg/mL |
| Cc1ccc(N(CC2CO2)S(=O)(=O)c2ccccc2[N+](=O)[O-])cc1 (centres undefined) | 36.7 µg/mL (≈ 105 µM) |
| O=C(c1ccc(F)cc1F)C1CCN(c2ccc([N+](=O)[O-])cn2)CC1 | 1.4 µg/mL (≈ 4.03 µM) |
| O=C(Nc1ccc(Cl)c(Cl)c1)N1CCOCC1 | > 41.3 µg/mL |
| O=C(O)C1C2CCC(CC2)C1C(=O)N1CCN(Cc2ccc(F)cc2)CC1 (centres undefined) | > 56.2 µg/mL |
| Cc1onc(-c2c(Cl)cccc2Cl)c1CO/N=C(\C#N)c1c(Cl)cccc1Cl | < 0.3 µg/mL |
| CC(Sc1nncn1C)C(=O)NCCC1=CCCCC1 (centres undefined) | > 44.2 µg/mL |
| O=C(COC(=O)c1ccc([N+](=O)[O-])cc1)NC12CC3CC(CC(C3)C1)C2 | 3.3 µg/mL (≈ 9.21 µM) |
| COc1cc(OC)cc(C(=O)NCC(=O)OC(C)C(=O)NC(C)C2CC3CCC2C3)c1 (centres undefined) | > 64.9 µg/mL |
| O=C(NCCOc1ccc(Cl)cc1)c1ccco1 | 25.9 µg/mL (≈ 97.5 µM) |
| COc1ccccc1CC(=O)N(Cc1ccccc1)c1cccc(C)c1 | 8.9 µg/mL (≈ 25.8 µM) |
| Cc1ccccc1-c1nnc(SC(C)C(=O)NC2CCCC2)o1 (centres undefined) | > 49.7 µg/mL |

| SMILES | solubility kinetic |
| --- | --- |
| COCc1c(C(=O)NC2CCCCCC2)oc2ccccc12 | 10.4 µg/mL (≈ 34.5 µM) |
| CC(NCCC(c1ccccc1)c1ccccc1)c1ccccc1.Cl (centres undefined) | > 52.8 µg/mL |
| O=C(COC(=O)/C=C/c1ccccc1)NCc1ccc2c(c1)OCO2 | 4.8 µg/mL (≈ 14.1 µM) |
| O=C(COC(=O)Cc1c[nH]c2ccccc12)Nc1ccccc1C(F)(F)F | > 56.5 µg/mL |
| O=C(Nc1ccc(Nc2ccccc2)cc1)c1ccccc1 | 1.6 µg/mL (≈ 5.55 µM) |
| CNC(=O)CN1C(=O)NC(Cc2c[nH]c3ccccc23)C1=O (centres undefined) | > 45 µg/mL |
| COCCn1c(SCC(=O)Nc2cccnc2Cl)nc2ccccc21 | 7.4 µg/mL (≈ 19.6 µM) |
| CCN(CC)c1ccc(N=Cc2c(O)[nH]c(=O)[nH]c2=O)cc1 | 5.8 µg/mL (≈ 19.2 µM) |
| COc1ccc(C(=O)O/N=C(\N)c2ccc(OC)c(OC)c2)cc1 | 9.3 µg/mL (≈ 28.2 µM) |
| Cc1ccc(Nc2nc(-c3cccnc3)cs2)cc1Cl | 0.3 µg/mL (≈ 0.994 µM) |
| Cl.c1cncc(CNC2CCCC2)c1 | > 37.4 µg/mL |
| CCOC(=O)c1c(C)[nH]c(C(=O)COC(=O)c2ccc([N+](=O)[O-])o2)c1C | 4.4 µg/mL (≈ 12.1 µM) |
| COc1ccc(CC(=O)Nc2ccccc2N2CCCC2)cc1OC | > 51.1 µg/mL |
| CC(C)c1ccccc1NC(=S)NCCCn1ccnc1 | > 45.4 µg/mL |
| Cc1onc(-c2ccccc2)c1C(=O)NC(C)CCc1ccccc1 (centres undefined) | 1.1 µg/mL (≈ 3.29 µM) |
| COc1ccc(C(=O)NCCNc2nc3c(C)cccc3cc2C#N)cc1 | 0.4 µg/mL (≈ 1.11 µM) |
| Cc1nc2ccc([N+](=O)[O-])cc2c(=O)n1Cc1cccc(F)c1 | 9.1 µg/mL (≈ 29 µM) |
| COc1ccccc1CN(C)C(=O)COC(=O)c1ccc(Cl)nc1 | > 52.3 µg/mL |
| Cc1ccc(S(=O)(=O)c2ncccc2[N+](=O)[O-])cc1 | 40.9 µg/mL (≈ 147 µM) |
| Cn1c(SCc2ccc(F)cc2)nnc1-c1ccncc1 | > 45.1 µg/mL |
| S=C(NC1CCCCC1)N1CCn2cccc2C1c1ccncc1 (centres undefined) | 36.1 µg/mL (≈ 106 µM) |
| Cc1ccc(C)c(S(=O)(=O)N2CCN(C(=O)[C@@H]3CCCN3C(=O)c3cccs3)CC2)c1 | 40.4 µg/mL (≈ 87.5 µM) |
| C=CCC(C=C)[N+]1(CC(=O)OC)CCCCC1.[Br-] (centres undefined) | > 47.7 µg/mL |
| Cc1cc(NC(=O)c2ccc(COc3ccccc3Cl)o2)no1 | < 0.4 µg/mL |

| SMILES | solubility kinetic |
| --- | --- |
| Cc1ccc(C)c(-c2csc(NC(=O)c3c(C)noc3C)n2)c1 | 2.1 µg/mL (≈ 6.41 µM) |
| O=C(Nc1ccc2c(c1)OCCO2)C1CCCC1 | > 37.1 µg/mL |
| OCCCNc1c2ccccc2nc2ccccc12 | > 37.8 µg/mL |
| Cc1cccc(NC(=O)COC(=O)c2cc(C)n(C3CC3)c2C)c1 | 9.7 µg/mL (≈ 29.7 µM) |
| COc1ccc2c(c1)sc1nc(=O)ccn12 | > 34.8 µg/mL |
| Cc1cc(C(=O)N2CCN(c3ccc([N+](=O)[O-])cc3)CC2)c(C)o1 | 20.3 µg/mL (≈ 61.6 µM) |
| CSc1sc(C(=O)NCC2CC2)cc1S(=O)(=O)C(C)C | 49.3 µg/mL (≈ 148 µM) |
| Cc1nc(NC(=S)NC(=O)c2ccco2)sc1C(=O)N(C)C | > 50.8 µg/mL |
| Cc1ccc2ncnc(Oc3ncccc3NC(=O)C(C)(C)C)c2c1 | > 50.5 µg/mL |
| COc1cc2[nH]c(Cl)c([N+](=O)[O-])c2cc1OC | > 38.5 µg/mL |
| O=C(NCCCCCCNC(=O)c1ccccc1O)c1ccccc1O | 1.2 µg/mL (≈ 3.37 µM) |
| Cc1cccc2c(N=O)c(O)[nH]c12 | > 26.4 µg/mL |
| CCCC(=O)Nc1nnc(-c2ccc3c(c2)OCCO3)o1 | > 43.4 µg/mL |
| CCOc1ccc2nc(SCC(=O)Nc3cc(C)on3)c(C)cc2c1 | < 0.3 µg/mL |
| Cc1ccccc1-c1ccc(/C=C2/SC(N3CCOCC3)=NC2=O)o1 | 1.4 µg/mL (≈ 3.95 µM) |
| O=C1NC(=O)/C(=C/c2ccccn2)S1 | > 30.9 µg/mL |
| COc1ccc(S(=O)(=O)Nc2ccc(Nc3ccccc3)cc2)cc1 | 4.7 µg/mL (≈ 13.3 µM) |
| CCCn1c(NC(=O)c2ccc([N+](=O)[O-])o2)nc2ccccc21 | 10.4 µg/mL (≈ 33.1 µM) |
| OCc1nc2ccccc2n1Cc1c(F)cccc1Cl | 14.4 µg/mL (≈ 49.5 µM) |
| CN(c1cccc(NS(=O)(=O)c2ccccc2)c1)S(C)(=O)=O | > 51.1 µg/mL |
| O=C1NC2(CCCCCC2)C(=O)N1Cc1cccc([N+](=O)[O-])c1 | 32.1 µg/mL (≈ 101 µM) |
| O=Cc1cccn1-c1ccc2ccccc2c1 | 15 µg/mL (≈ 67.8 µM) |
| CN(C)c1ccc(NC(=O)C(=O)NCCOc2ccccc2)cc1 | 0.7 µg/mL (≈ 2.14 µM) |
| O=C(O)c1ccc(N2CCc3ccccc32)c([N+](=O)[O-])c1 | > 42.6 µg/mL |

| SMILES | solubility kinetic |
| --- | --- |
| Cn1c(SCC2CCCO2)nnc1-c1cccc([N+](=O)[O-])c1 (centres undefined) | > 48.1 µg/mL |
| COc1ccc(-n2c(O)c(C=NCCN(C)C)c(=O)[nH]c2=O)cc1 | > 49.9 µg/mL |
| COc1ccc(CCN2C(=O)C(C)=C(C)C2=O)cc1OC | > 43.4 µg/mL |
| CCc1ccc(NC(=O)C2CCCN2C(=O)NC2CCCCC2)cc1 (centres undefined) | 1.1 µg/mL (≈ 3.2 µM) |
| CC(=O)Nc1ccc(S(=O)(=O)NCC(=O)OCC(=O)N2CC(C)OC(C)C2)cc1 (centres undefined) | > 64.1 µg/mL |
| CC(C)c1ccc(N2C(=O)C(Cl)=C(N3CCOCC3)C2=O)cc1 | 9.2 µg/mL (≈ 27.5 µM) |
| Cc1ccnc(NS(=O)(=O)c2ccc(NS(C)(=O)=O)cc2)n1 | 47.8 µg/mL (≈ 140 µM) |
| COc1ccc(-c2nc(N)ncc2-c2ccc(OC)c(OC)c2)c(O)c1 | 1 µg/mL (≈ 2.83 µM) |
| CC(C)Oc1cccc(C(=O)C2CCCN(S(C)(=O)=O)C2)c1 (centres undefined) | > 48.8 µg/mL |
| O=S(=O)(c1ccc(Cl)nc1)N1CCOCC1 | > 39.4 µg/mL |
| COc1ccc(CCC(C)NCc2ccccc2OC)cc1 (centres undefined) | 32 µg/mL (≈ 107 µM) |
| COc1cc(/C=C\C(=O)O)cc(S(=O)(=O)N2CCCCCC2)c1OC | 52.8 µg/mL (≈ 143 µM) |
| COc1cccc(NC2=C(NCCO)C(=O)c3ccccc3C2=O)c1 | 47.4 µg/mL (≈ 140 µM) |
| Cc1cc(OC(=O)c2ccc(F)cc2)c([N+](=O)[O-])c(=O)[nH]1 | 43.2 µg/mL (≈ 148 µM) |
| CN1CCCC(OC(=O)/C(C#N)=C/c2ccccc2)C1.Cl (centres undefined) | > 46 µg/mL |
| CCc1sc(C(=O)Nc2nccs2)cc1C | 3.6 µg/mL (≈ 14.3 µM) |
| O=C(Nc1cccnc1)Nc1cccc([N+](=O)[O-])c1 | 10 µg/mL (≈ 38.7 µM) |
| CCOc1ccc(CNC(=O)CCc2cn(C)c3ccccc23)cc1 | 2.1 µg/mL (≈ 6.24 µM) |
| O=C(O)/C=C/C(=O)Nc1ccc(N2CCOCC2)nc1N1CCOCC1 | > 54.4 µg/mL |
| COc1ccccc1CNC(=O)CS(=O)(=O)Cc1ccccc1 | 41.4 µg/mL (≈ 124 µM) |
| Clc1cccc(N2CCN(c3ncnc4nc[nH]c34)CC2)c1 | 0.8 µg/mL (≈ 2.54 µM) |
| CCc1ccccc1NC(=O)C1CCCC1 | 29.7 µg/mL (≈ 137 µM) |
| COc1cccc(NC(=O)N2CCc3ccccc3C2)c1 | > 42.4 µg/mL |
